Test results as given in patent US10544102B2, “Benzazepine dicarboxamide compounds with secondary amide function” (Hoffmann-La Roche Inc., priority 2017, dated 2020).

Legend:
human TLR7 = target: T1, human TLR7 (Homo sapiens, UniProt Q9NYK1); assay: HEK-Blue human TLR7 cells NF-κB SEAP reporter assay; format: cell-based; details: stimulation for 20 hours, Quanti Blue 640 nm
T1 construct: host or cells: HEK-Blue human TLR7 cells (HEK293-derived reporter line)
T1 sequence (Q9NYK1 27-1049): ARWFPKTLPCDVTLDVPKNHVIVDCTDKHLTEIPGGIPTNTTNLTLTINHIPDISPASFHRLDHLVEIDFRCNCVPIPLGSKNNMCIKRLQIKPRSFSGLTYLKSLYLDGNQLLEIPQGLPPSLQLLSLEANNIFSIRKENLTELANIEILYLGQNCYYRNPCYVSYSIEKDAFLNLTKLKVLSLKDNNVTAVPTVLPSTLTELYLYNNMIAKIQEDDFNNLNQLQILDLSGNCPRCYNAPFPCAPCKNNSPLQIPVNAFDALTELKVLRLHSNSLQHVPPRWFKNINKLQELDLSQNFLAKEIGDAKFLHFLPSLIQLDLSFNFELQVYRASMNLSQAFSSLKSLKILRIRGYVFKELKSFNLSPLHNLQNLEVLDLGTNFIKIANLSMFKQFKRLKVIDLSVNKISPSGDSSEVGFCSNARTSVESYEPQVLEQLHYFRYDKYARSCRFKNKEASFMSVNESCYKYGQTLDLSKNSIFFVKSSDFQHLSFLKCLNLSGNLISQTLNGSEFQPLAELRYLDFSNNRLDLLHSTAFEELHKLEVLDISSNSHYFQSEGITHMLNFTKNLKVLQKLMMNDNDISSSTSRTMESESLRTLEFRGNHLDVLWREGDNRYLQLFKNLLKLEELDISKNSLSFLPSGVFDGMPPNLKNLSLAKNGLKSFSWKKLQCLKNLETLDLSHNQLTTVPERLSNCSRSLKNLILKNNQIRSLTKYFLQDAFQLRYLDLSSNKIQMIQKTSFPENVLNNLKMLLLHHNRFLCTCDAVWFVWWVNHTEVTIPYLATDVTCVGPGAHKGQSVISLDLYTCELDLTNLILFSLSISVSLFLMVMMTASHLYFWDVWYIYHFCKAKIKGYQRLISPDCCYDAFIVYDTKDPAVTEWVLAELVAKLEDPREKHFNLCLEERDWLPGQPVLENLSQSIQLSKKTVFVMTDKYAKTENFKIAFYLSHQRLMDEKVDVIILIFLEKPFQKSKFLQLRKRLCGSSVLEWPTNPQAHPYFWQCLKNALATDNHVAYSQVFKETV
Text: (§1) For TLR8 and TLR7 activity testing, HEK-Blue human TLR8 or TLR7 cells (Invivogen, San Diego, Calif., USA) are used, respectively. These cells are designed for studying the stimulation of human TLR8 or TLR7 by monitoring the activation of NF-κB. A SEAP (secreted embryonic alkaline phosphatase) reporter gene is placed under the control of the IFN-b minimal promoter fused to five NF-κB and AP-1-binding sites. Therefore the reporter expression is regulated by the NF-κB promoter upon stimulation of human TLR8 or TLR7 for 20 hours. The cell culture supernatant SEAP reporter activity was determined using Quanti Blue kit (Invivogen, San Diego, Calif., USA) at a wavelength of 640 nm, a detection medium that turns purple/blue in the presence of alkaline phosphatase. EC50 values were determined using Activity Base analysis (ID Business Solution, Limited).

human TLR8 = target: T2, human TLR8 (Homo sapiens, UniProt Q9NR97); assay: HEK-Blue human TLR8 cells NF-κB SEAP reporter assay; format: cell-based; details: stimulation for 20 hours, Quanti Blue 640 nm
T2 construct: host or cells: HEK-Blue human TLR8 cells (HEK293-derived reporter line)
T2 sequence (Q9NR97 27-1041): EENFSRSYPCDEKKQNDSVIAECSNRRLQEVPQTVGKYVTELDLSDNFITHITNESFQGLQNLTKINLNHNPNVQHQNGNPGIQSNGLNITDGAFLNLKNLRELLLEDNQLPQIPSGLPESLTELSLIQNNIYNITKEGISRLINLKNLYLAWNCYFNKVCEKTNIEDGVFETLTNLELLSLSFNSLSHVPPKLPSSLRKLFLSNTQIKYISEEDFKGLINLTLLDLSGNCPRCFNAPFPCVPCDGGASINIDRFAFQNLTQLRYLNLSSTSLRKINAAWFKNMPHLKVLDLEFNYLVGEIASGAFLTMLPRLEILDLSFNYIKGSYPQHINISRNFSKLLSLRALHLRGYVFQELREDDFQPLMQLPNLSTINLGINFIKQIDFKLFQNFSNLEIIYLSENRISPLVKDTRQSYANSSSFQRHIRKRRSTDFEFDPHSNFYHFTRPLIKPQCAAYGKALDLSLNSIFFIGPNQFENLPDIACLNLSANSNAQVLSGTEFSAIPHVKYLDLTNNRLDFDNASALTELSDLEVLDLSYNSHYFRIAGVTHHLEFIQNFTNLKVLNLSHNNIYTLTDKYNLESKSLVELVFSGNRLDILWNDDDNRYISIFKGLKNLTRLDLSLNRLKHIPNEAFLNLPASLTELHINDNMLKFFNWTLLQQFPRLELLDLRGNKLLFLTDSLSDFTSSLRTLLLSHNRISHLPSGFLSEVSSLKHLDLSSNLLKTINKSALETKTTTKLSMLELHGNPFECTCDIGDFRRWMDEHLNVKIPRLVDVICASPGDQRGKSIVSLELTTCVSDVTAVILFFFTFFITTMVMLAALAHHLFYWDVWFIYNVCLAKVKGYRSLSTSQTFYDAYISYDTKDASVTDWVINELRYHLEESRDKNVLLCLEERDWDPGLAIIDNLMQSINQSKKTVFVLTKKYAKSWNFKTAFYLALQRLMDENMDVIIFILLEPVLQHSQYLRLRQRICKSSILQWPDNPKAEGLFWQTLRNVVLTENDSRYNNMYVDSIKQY
Text: as §1

SMILES: CCCN(CCC)C(=O)C1=Cc2ccc(C(=O)N[C@H]3C[C@@H]3c3ccccc3)cc2N=C(N)C1 [Example 1, 2-Amino-N8-[(1S,2R)-2-phenylcyclopropyl]-N4,N4-dipropyl-3H-1-benzazepine-4,8-dicarboxamide]
- EC50 (human TLR7): 7.9 µM
- EC50 (human TLR8): 0.002 µM

SMILES: CCCN(CCC)C(=O)C1=Cc2ccc(C(=O)NC3CCN(c4ccccc4)CC3)cc2N=C(N)C1 [Example 2, 2-Amino-N8-(1-phenyl-4-piperidyl)-N4,N4-dipropyl-3H-1-benzazepine-4,8-dicarboxamide]
- EC50 (human TLR7): 10 µM
- EC50 (human TLR8): 0.002 µM

SMILES: CCCN(CCC)C(=O)C1=Cc2ccc(C(=O)NC3CN(c4ccccc4)C3)cc2N=C(N)C1 [Example 3, 2-Amino-N8-(1-phenylazetidin-3-yl)-N4,N4-dipropyl-3H-1-benzazepine-4,8-dicarboxamide]
- EC50 (human TLR7): > 100 µM
- EC50 (human TLR8): 0.004 µM

SMILES: CCCN(CCC)C(=O)C1=Cc2ccc(C(=O)NC3CCCCC3)cc2N=C(N)C1 [Example 4, 2-Amino-N8-cyclohexyl-N4,N4-dipropyl-3H-1-benzazepine-4,8-dicarboxamide]
- EC50 (human TLR7): 34 µM
- EC50 (human TLR8): 0.004 µM

SMILES: CCCN(CCC)C(=O)C1=Cc2ccc(C(=O)NC3(c4ccccc4)CC3)cc2N=C(N)C1 [Example 5, 2-Amino-N8-(1-phenylcyclopropyl)-N4,N4-dipropyl-3H-1-benzazepine-4,8-dicarboxamide]
- EC50 (human TLR7): > 100 µM
- EC50 (human TLR8): 0.006 µM

SMILES: CCCN(CCC)C(=O)C1=Cc2ccc(C(=O)NC3(c4ccccc4)CCC3)cc2N=C(N)C1 [Example 6, 2-Amino-N8-(1-phenylcyclobutyl)-N4,N4-dipropyl-3H-1-benzazepine-4,8-dicarboxamide]
- EC50 (human TLR7): 13 µM
- EC50 (human TLR8): 0.007 µM

SMILES: CCCN(CCC)C(=O)C1=Cc2ccc(C(=O)N[C@@H](C)c3ccccc3)cc2N=C(N)C1 [Example 7, 2-Amino-N8-[(1S)-1-phenylethyl]-N4,N4-dipropyl-3H-1-benzazepine-4,8-dicarboxamide]
- EC50 (human TLR7): 17 µM
- EC50 (human TLR8): 0.01 µM

SMILES: CCCN(CCC)C(=O)C1=Cc2ccc(C(=O)NCc3ccon3)cc2N=C(N)C1 [Example 8, 2-Amino-N8-(isoxazol-3-ylmethyl)-N4,N4-dipropyl-3H-1-benzazepine-4,8-dicarboxamide]
- EC50 (human TLR7): 40 µM
- EC50 (human TLR8): 0.012 µM

SMILES: CCCN(CCC)C(=O)C1=Cc2ccc(C(=O)NCc3cncs3)cc2N=C(N)C1 [Example 9, 2-Amino-N4,N4-dipropyl-N8-(thiazol-5-ylmethyl)-3H-1-benzazepine-4,8-dicarboxamide]
- EC50 (human TLR7): 52 µM
- EC50 (human TLR8): 0.024 µM

SMILES: CCCN(CCC)C(=O)C1=Cc2ccc(C(=O)NC(c3ccccc3)c3ccccc3)cc2N=C(N)C1 [Example 10, 2-Amino-N8-benzhydryl-N4,N4-dipropyl-3H-1-benzazepine-4,8-dicarboxamide]
- EC50 (human TLR7): > 100 µM
- EC50 (human TLR8): 0.011 µM

SMILES: CCCN(CCC)C(=O)C1=Cc2ccc(C(=O)NC3(c4ccccc4)CCOCC3)cc2N=C(N)C1 [Example 11, 2-Amino-N8-(4-phenyltetrahydropyran-4-yl)-N4,N4-dipropyl-3H-1-benzazepine-4,8-dicarboxamide]
- EC50 (human TLR7): > 100 µM
- EC50 (human TLR8): 0.029 µM

SMILES: CCCN(CCC)C(=O)C1=Cc2ccc(C(=O)NCc3nccs3)cc2N=C(N)C1 [Example 12, 2-Amino-N4,N4-dipropyl-N8-(thiazol-2-ylmethyl)-3H-1-benzazepine-4,8-dicarboxamide]
- EC50 (human TLR7): 42 µM
- EC50 (human TLR8): 0.013 µM

SMILES: CCCN(CCC)C(=O)C1=Cc2ccc(C(=O)NC(C)(C)c3ccccc3)cc2N=C(N)C1 [Example 13, 2-Amino-N8-(1-methyl-1-phenyl-ethyl)-N4,N4-dipropyl-3H-1-benzazepine-4,8-dicarboxamide]
- EC50 (human TLR7): 14 µM
- EC50 (human TLR8): 0.011 µM

SMILES: CCCN(CCC)C(=O)C1=Cc2ccc(C(=O)N[C@H](C)c3ccccc3)cc2N=C(N)C1 [Example 14, 2-Amino-N8-[(1R)-1-phenylethyl]-N4,N4-dipropyl-3H-1-benzazepine-4,8-dicarboxamide]
- EC50 (human TLR7): 35 µM
- EC50 (human TLR8): 0.012 µM

SMILES: CCCN(CCC)C(=O)C1=Cc2ccc(C(=O)NC3CCCC3)cc2N=C(N)C1 [Example 15, 2-Amino-N8-cyclopentyl-N4,N4-dipropyl-3H-1-benzazepine-4,8-dicarboxamide]
- EC50 (human TLR7): > 100 µM
- EC50 (human TLR8): 0.014 µM

SMILES: CCCN(CCC)C(=O)C1=Cc2ccc(C(=O)NC(C)(C)C)cc2N=C(N)C1 [Example 16, 2-Amino-N8-tert-butyl-N4,N4-dipropyl-3H-1-benzazepine-4,8-dicarboxamide]
- EC50 (human TLR7): 50 µM
- EC50 (human TLR8): 0.028 µM

SMILES: CCCN(CCC)C(=O)C1=Cc2ccc(C(=O)NC3CCC3)cc2N=C(N)C1 [Example 17, 2-Amino-N8-cyclobutyl-N4,N4-dipropyl-3H-1-benzazepine-4,8-dicarboxamide]
- EC50 (human TLR7): > 100 µM
- EC50 (human TLR8): 0.025 µM

SMILES: CCCN(CCC)C(=O)C1=Cc2ccc(C(=O)NCc3ccccc3)cc2N=C(N)C1 [Example 18, 2-Amino-N8-benzyl-N4,N4-dipropyl-3H-1-benzazepine-4,8-dicarboxamide]
- EC50 (human TLR7): 25 µM
- EC50 (human TLR8): 0.026 µM

SMILES: CCCN(CCC)C(=O)C1=Cc2ccc(C(=O)NCc3cccnc3)cc2N=C(N)C1 [Example 19, 2-Amino-N4,N4-dipropyl-N8-(3-pyridylmethyl)-3H-1-benzazepine-4,8-dicarboxamide]
- EC50 (human TLR7): 49 µM
- EC50 (human TLR8): 0.025 µM

SMILES: CCCN(CCC)C(=O)C1=Cc2ccc(C(=O)NCCc3cccnc3)cc2N=C(N)C1 [Example 20, 2-Amino-N4,N4-dipropyl-N8-[2-(3-pyridyl)ethyl]-3H-1-benzazepine-4,8-dicarboxamide]
- EC50 (human TLR7): > 100 µM
- EC50 (human TLR8): 0.03 µM

SMILES: CCCN(CCC)C(=O)C1=Cc2ccc(C(=O)NCCCc3cccnc3)cc2N=C(N)C1 [Example 21, 2-Amino-N4,N4-dipropyl-N8-[3-(3-pyridyl)propyl]-3H-1-benzazepine-4,8-dicarboxamide]
- EC50 (human TLR7): > 100 µM
- EC50 (human TLR8): 0.029 µM

SMILES: CCCN(CC1CC1)C(=O)C1=Cc2ccc(C(=O)NC3C[C@H]3c3ccccc3)cc2N=C(N)C1 (stereo partly drawn) [Example 22, 2-Amino-N4-(cyclopropylmethyl)-N8-[(2S)-2-phenylcyclopropyl]-N4-propyl-3H-1-benzazepine-4,8-dicarboxamide]
- EC50 (human TLR7): 14 µM
- EC50 (human TLR8): 0.005 µM

SMILES: CCCN(CCC)C(=O)C1=Cc2ccc(C(=O)NC3CCCN(c4ccccc4)C3)cc2N=C(N)C1 (stereo not shown) [Example 23, 2-Amino-N8-(1-phenyl-3-piperidyl)-N4,N4-dipropyl-3H-1-benzazepine-4,8-dicarboxamide]
- EC50 (human TLR7): > 100 µM
- EC50 (human TLR8): 0.01 µM
